Test results as given in patent publication US20100022509A1, “Inhibitors of MshC and Homologs Thereof, and Methods of Identifying Same” (priority 2006, published 2010).
Read-outs that look alike come from different tables or passages of the source.

Target: T1, MshC (Mycobacterium tuberculosis, UniProt P9WJM9)
T1 sequence (P9WJM9 1-414): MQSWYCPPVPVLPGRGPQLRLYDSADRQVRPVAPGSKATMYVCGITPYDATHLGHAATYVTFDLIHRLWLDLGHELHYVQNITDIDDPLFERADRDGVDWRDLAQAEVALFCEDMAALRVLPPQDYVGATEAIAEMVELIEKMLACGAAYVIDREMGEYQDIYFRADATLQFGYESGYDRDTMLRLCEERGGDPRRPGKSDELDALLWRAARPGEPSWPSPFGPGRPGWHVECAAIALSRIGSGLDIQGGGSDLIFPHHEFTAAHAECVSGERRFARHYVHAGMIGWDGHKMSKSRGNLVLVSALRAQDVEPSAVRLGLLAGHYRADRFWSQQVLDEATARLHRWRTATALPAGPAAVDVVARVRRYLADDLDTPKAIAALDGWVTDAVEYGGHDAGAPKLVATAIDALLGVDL
Test: biochemical
Format: biochemical, M. tuberculosis

Nc1ncnc2c1ncn2[C@@H]1O[C@H](COS(=O)(=O)NC(=O)[C@@H](N)CS)[C@@H](O)[C@H]1O [5′-O-[N-(L-cysteinyl)sulfamoyl]adenosine, reference compound]
IC50 (assayed under the conditions described in [0186], read-out: IC50 (inhibits MshC)): ~4e-05 mM

CCC1CCCCN1CCCNC(=O)c1ccc2c(c1)N(Cc1ccccc1F)C(=O)c1ccccc1[S+]2[O-] (stereo not drawn) [Inhibitor 83-01]
IC50 (IC50): > 3 mM

O=C(NCCCN1CCC(Cc2ccccc2)CC1)c1ccc2c(c1)N(Cc1ccccc1F)C(=O)c1ccccc1[S+]2[O-] (stereo not drawn) [Inhibitor 83-02]
inhibition of MshC in words, compounds lacking the basic amino group or with groups in excess of 10 carbons on the remote amino residue: little or no inhibition | IC50 (IC50): > 3 mM

CN(CCCNC(=O)c1ccc2c(c1)N(Cc1ccccc1F)C(=O)c1ccccc1[S+]2[O-])C1CCCCC1 (stereo not drawn) [Inhibitor 83-03]
IC50 (IC50): > 3 mM

O=C(NCCCSC1CCCCC1)c1ccc2c(c1)N(Cc1ccccc1F)C(=O)c1ccccc1[S+]2[O-] (stereo not drawn) [Inhibitor 83-04]
IC50 (IC50): > 3 mM

CCCN(CCC)CCCNC(=O)c1ccc2c(c1)N(Cc1ccc(F)cc1)C(=O)c1ccccc1[S+]2[O-] (stereo not drawn) [Inhibitor 83-05]
IC50 (IC50): > 3 mM

CCN(CC)CCCNC(=O)c1ccc2c(c1)N(Cc1cc(C)ccc1C)C(=O)c1ccccc1[S+]2[O-] (stereo not drawn) [Inhibitor 83-06]
IC50 (IC50): > 3 mM

Cc1ccc(C)c(CN2C(=O)c3ccccc3[S+]([O-])c3ccc(C(=O)NCCCN4CCCCCC4)cc32)c1 (stereo not drawn) [Inhibitor 83-07]
inhibition of MshC in words, 1,3-diaminopropyl residue with remote amino residue capable of protonation: measurable inhibition | inhibition of MshC in words, Z benzyl moiety with methyl groups in the 2,5 positions or unsubstituted: Weak but detectable inhibition | IC50 (IC50): 0.65 ± 0.05 mM | inhibition of MshC in words, compounds grouped by X (X=S, X=SO, X=SO2): Significant inhibition

Cc1ccc(C)c(CN2C(=O)c3ccccc3[S+]([O-])c3ccc(C(=O)NCCCN(C)C4CCCCC4)cc32)c1 (stereo not drawn) [Inhibitor 83-08]
IC50 (IC50): ~3 mM | inhibition of MshC in words, compounds grouped by X (X=S, X=SO, X=SO2): Significant inhibition

Cc1ccc(C)c(CN2C(=O)c3ccccc3[S+]([O-])c3ccc(C(=O)NCCCSC4CCCCC4)cc32)c1 (stereo not drawn) [Inhibitor 83-09]
IC50 (IC50): > 3 mM

O=C(NCCCN1CCOCC1)c1ccc2c(c1)N(Cc1ccccc1)C(=O)c1ccccc1[S+]2[O-] (stereo not drawn) [Inhibitor 83-10]
IC50 (IC50): > 3 mM

CN(CCCNC(=O)c1ccc2c(c1)N(Cc1ccccc1)C(=O)c1ccccc1[S+]2[O-])C1CCCCC1 (stereo not drawn) [Inhibitor 83-11]
inhibition of MshC in words, 1,3-diaminopropyl residue with remote amino residue capable of protonation: measurable inhibition | IC50 (IC50): 0.4 ± 0.1 mM | inhibition of MshC in words, compounds grouped by X (X=S, X=SO, X=SO2): Significant inhibition

O=C(NCCCSC1CCCCC1)c1ccc2c(c1)N(Cc1ccccc1)C(=O)c1ccccc1[S+]2[O-] (stereo not drawn) [Inhibitor 83-12]
inhibition of MshC in words, compounds lacking the basic amino group or with groups in excess of 10 carbons on the remote amino residue: little or no inhibition | IC50 (IC50): > 3 mM

CCN1C(=O)c2ccccc2[S+]([O-])c2ccc(C(=O)NCCCN3CCOCC3)cc21 (stereo not drawn) [Inhibitor 83-13]
IC50 (IC50): > 3 mM

CCN1C(=O)c2ccccc2[S+]([O-])c2ccc(C(=O)NCCCN3CCN(C)CC3)cc21 (stereo not drawn) [Inhibitor 83-14]
IC50 (IC50): > 3 mM

CCN1C(=O)c2ccccc2[S+]([O-])c2ccc(C(=O)NCCCN3CCCCCC3)cc21 (stereo not drawn) [Inhibitor 83-15]
IC50 (IC50): > 3 mM

CCCN(CCC)CCCNC(=O)c1ccc2c(c1)N(CC)C(=O)c1ccccc1[S+]2[O-] (stereo not drawn) [Inhibitor 83-16]
IC50 (IC50): > 3 mM

CCCCN(CCCC)CCCNC(=O)c1ccc2c(c1)N(CC)C(=O)c1ccccc1[S+]2[O-] (stereo not drawn) [Inhibitor 83-17]
IC50 (IC50): > 3 mM

CCN1C(=O)c2ccccc2[S+]([O-])c2ccc(C(=O)NCCCSC3CCCCC3)cc21 (stereo not drawn) [Inhibitor 83-18]
IC50 (IC50): > 3 mM

CCN1C(=O)c2ccccc2S(=O)(=O)c2ccc(C(=O)NCCCN3CCCCCC3)cc21 [Inhibitor 83-19]
IC50 (IC50): ~3 mM

CCCCN(CC)CCCNC(=O)c1ccc2c(c1)N(CC)C(=O)c1ccccc1S2(=O)=O [Inhibitor 83-20]
IC50 (IC50): > 3 mM

CCC1CCCCN1CCCNC(=O)c1ccc2c(c1)N(Cc1cccc(C)c1)C(=O)c1ccccc1S2(=O)=O (stereo not drawn) [Inhibitor 83-21]
IC50 (IC50): ~2 mM

Cc1cccc(CN2C(=O)c3ccccc3S(=O)(=O)c3ccc(C(=O)NCCCN4CCCC4)cc32)c1 [Inhibitor 83-22]
IC50 (IC50): > 3 mM

Cc1cccc(CN2C(=O)c3ccccc3S(=O)(=O)c3ccc(C(=O)NCCCN4CCCCCC4)cc32)c1 [Inhibitor 83-23]
IC50 (IC50): > 3 mM

CCCCN(C)CCCNC(=O)c1ccc2c(c1)N(Cc1cccc(C)c1)C(=O)c1ccccc1S2(=O)=O [Inhibitor 83-24]
IC50 (IC50): 1.5 ± 0.5 mM

Cc1cccc(CN2C(=O)c3ccccc3S(=O)(=O)c3ccc(C(=O)NCCCN(C)C4CCCCC4)cc32)c1 [Inhibitor 83-25]
IC50 (IC50): > 3 mM

O=C(NCCCN1CCN(c2cccc(Cl)c2)CC1)c1ccc2c(c1)N(Cc1ccc(Cl)cc1)C(=O)c1ccccc1S2(=O)=O [Inhibitor 83-26]
inhibition of MshC in words, compounds lacking the basic amino group or with groups in excess of 10 carbons on the remote amino residue: little or no inhibition | IC50 (IC50): > 3 mM

CCC1CCCCN1CCCNC(=O)c1ccc2c(c1)N(Cc1ccc(Cl)cc1)C(=O)c1ccccc1S2(=O)=O (stereo not drawn) [Inhibitor 83-27]
inhibition of MshC in words, 1,3-diaminopropyl residue with remote amino residue capable of protonation: measurable inhibition | inhibition of MshC in words, Z is a benzyl moiety bearing one or more halogens: Measurable inhibition | IC50 (IC50): 0.7 ± 0.25 mM | inhibition of MshC in words, compounds grouped by X (X=S, X=SO, X=SO2): Significant inhibition

O=C(NCCCN1CCCC1)c1ccc2c(c1)N(Cc1ccc(Cl)cc1)C(=O)c1ccccc1S2(=O)=O [Inhibitor 83-28]
inhibition of MshC in words, 1,3-diaminopropyl residue with remote amino residue capable of protonation: measurable inhibition | inhibition of MshC in words, Z is a benzyl moiety bearing one or more halogens: Measurable inhibition | inhibition of MshC in words, compounds grouped by X: Significant inhibition | IC50 (IC50): 0.25 ± 0.1 mM

CC1CC(C)CN(CCCNC(=O)c2ccc3c(c2)N(Cc2ccc(Cl)cc2)C(=O)c2ccccc2S3(=O)=O)C1 (stereo not drawn) [Inhibitor 83-29]
IC50 (IC50): > 3 mM

CC1CCCCN1CCNC(=O)c1ccc2c(c1)N(Cc1ccc(Cl)cc1)C(=O)c1ccccc1S2(=O)=O (stereo not drawn) [Inhibitor 83-30]
IC50 (IC50): > 3 mM

O=C(NCCCN1CCN(c2ccc(F)cc2)CC1)c1ccc2c(c1)N(Cc1ccc(Cl)cc1)C(=O)c1ccccc1S2(=O)=O [Inhibitor 83-32]
inhibition of MshC in words, compounds lacking the basic amino group or with groups in excess of 10 carbons on the remote amino residue: little or no inhibition | IC50 (IC50): ~2 mM

O=C(NCCCN1CCC(Cc2ccccc2)CC1)c1ccc2c(c1)N(Cc1ccc(Cl)cc1)C(=O)c1ccccc1S2(=O)=O [Inhibitor 83-33]
inhibition of MshC in words, compounds lacking the basic amino group or with groups in excess of 10 carbons on the remote amino residue: little or no inhibition | IC50 (IC50): > 3 mM

CC(C)CN(CCCNC(=O)c1ccc2c(c1)N(Cc1ccc(Cl)cc1)C(=O)c1ccccc1S2(=O)=O)CC(C)C [Inhibitor 83-34]
IC50 (IC50): > 3 mM

CN(CCCNC(=O)c1ccc2c(c1)N(Cc1ccc(Cl)cc1)C(=O)c1ccccc1S2(=O)=O)C1CCCCC1 [Inhibitor 83-35]
IC50 (IC50): 0.35 ± 0.04 mM | inhibition of MshC in words, compounds grouped by X (X=S, X=SO, X=SO2): Significant inhibition

CN(CCCNC(=O)c1ccc2c(c1)N(Cc1ccc(Cl)cc1)C(=O)c1ccccc1S2(=O)=O)c1ccccc1 [Inhibitor 83-36]
IC50 (IC50): > 3 mM

O=C(NCCN1CCCC1)c1ccc2c(c1)N(Cc1ccccc1F)C(=O)c1ccccc1S2(=O)=O [Inhibitor 83-39]
inhibition of MshC in words, 1,3-diaminopropyl residue with remote amino residue capable of protonation: measurable inhibition | inhibition of MshC in words, Z is a benzyl moiety bearing one or more halogens: Measurable inhibition | IC50 (IC50): 0.1 ± 0.02 mM | inhibition of MshC in words, compounds grouped by X (X=S, X=SO, X=SO2): Significant inhibition

CC1CCCN(CCCNC(=O)c2ccc3c(c2)N(Cc2ccccc2F)C(=O)c2ccccc2S3(=O)=O)C1 (stereo not drawn) [Inhibitor 83-40]
inhibition of MshC in words, 1,3-diaminopropyl residue with remote amino residue capable of protonation: measurable inhibition | inhibition of MshC in words, Z is a benzyl moiety bearing one or more halogens: Measurable inhibition | IC50 (IC50): 0.1 ± 0.03 mM | inhibition of MshC in words, compounds grouped by X (X=S, X=SO, X=SO2): Significant inhibition

O=C(NCCN1CCN(Cc2ccccc2)CC1)c1ccc2c(c1)N(Cc1ccccc1F)C(=O)c1ccccc1S2(=O)=O [Inhibitor 83-42]
inhibition of MshC in words, compounds lacking the basic amino group or with groups in excess of 10 carbons on the remote amino residue: little or no inhibition | IC50 (IC50): > 3 mM

Cc1ccc(C)c(CN2C(=O)c3ccccc3S(=O)(=O)c3ccc(C(=O)NCCCN4CCOCC4)cc32)c1 [Inhibitor 83-43]
IC50 (IC50): > 3 mM

Cc1ccc(C)c(CN2C(=O)c3ccccc3S(=O)(=O)c3ccc(C(=O)NCCCN4CCCCCC4)cc32)c1 [Inhibitor 83-44]
inhibition of MshC in words, 1,3-diaminopropyl residue with remote amino residue capable of protonation: measurable inhibition | IC50 (IC50): > 0.5 mM

Cc1ccc(C)c(CN2C(=O)c3ccccc3S(=O)(=O)c3ccc(C(=O)NCCN4CCCCC4C)cc32)c1 (stereo not drawn) [Inhibitor 83-45]
IC50 (IC50): > 3 mM

Cc1ccc(C)c(CN2C(=O)c3ccccc3S(=O)(=O)c3ccc(C(=O)NCCCN(C)C4CCCCC4)cc32)c1 [Inhibitor 83-46]
IC50 (IC50): ≥ 0.5 mM

Cc1ccc(C)c(CN2C(=O)c3ccccc3S(=O)(=O)c3ccc(C(=O)NCCCSC4CCCCC4)cc32)c1 [Inhibitor 83-47]
inhibition of MshC in words, compounds lacking the basic amino group or with groups in excess of 10 carbons on the remote amino residue: little or no inhibition | IC50 (IC50): > 3 mM

CCC1CCCCN1CCCNC(=O)c1ccc2c(c1)N(Cc1ccccc1)C(=O)c1ccccc1S2(=O)=O (stereo not drawn) [Inhibitor 83-48]
IC50 (IC50): ≥ 0.5 mM

CC1CC(C)CN(CCCNC(=O)c2ccc3c(c2)N(Cc2ccccc2)C(=O)c2ccccc2S3(=O)=O)C1 (stereo not drawn) [Inhibitor 83-49]
IC50 (IC50): ~2 mM

CCN1CCN(CCCNC(=O)c2ccc3c(c2)N(Cc2ccccc2)C(=O)c2ccccc2S3(=O)=O)CC1 [Inhibitor 83-50]
IC50 (IC50): > 3 mM

CC1CCCN(CCCNC(=O)c2ccc3c(c2)N(Cc2ccccc2)C(=O)c2ccccc2S3(=O)=O)C1 (stereo not drawn) [Inhibitor 83-51]
IC50 (IC50): 1.7 ± 0.4 mM
